Measured values from US11028089B2, “Pyrimido-diazepinone kinase scaffold compounds and methods of treating DCLK1/2-mediated disorders” (DANA-FARBER CANCER INSTITUTE, INC., priority 2016, dated 2021).

Target: T1, recombinant DCLK1 (Homo sapiens, UniProt O15075)
T1 construct: N-terminally 6-His tagged human DCLK1 residues G351-H689 was prepared; 6-His (N); made in house; host or cells: E. coli BL21(DE3), co-transformed with lambda phosphatase
T1 sequence (O15075 351-689 isoform O15075-2): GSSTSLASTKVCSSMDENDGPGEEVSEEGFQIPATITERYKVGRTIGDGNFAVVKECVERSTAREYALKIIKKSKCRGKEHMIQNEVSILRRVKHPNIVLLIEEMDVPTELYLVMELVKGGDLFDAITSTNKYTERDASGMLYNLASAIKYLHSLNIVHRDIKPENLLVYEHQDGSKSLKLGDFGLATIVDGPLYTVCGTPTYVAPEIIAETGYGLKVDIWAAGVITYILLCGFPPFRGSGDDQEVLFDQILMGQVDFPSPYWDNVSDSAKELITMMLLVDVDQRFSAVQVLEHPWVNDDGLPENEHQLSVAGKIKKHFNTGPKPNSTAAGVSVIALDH
Assay: DCLK1 mobility shift assay (gel shift assay)
Type: biochemical
Settings: 30 nM recombinant DCLK1, 100 μM ATP, 1 μM FAM-labeled peptide substrate, two hours at room temperature, 8-point dose-response
Protocol: The DNA construct consisting of N-terminally 6-His tagged human DCLK1 residues G351-H689 was prepared. Thus prepared plasmid was co-transformed with lambda phosphatase under chloramphenicol selection into BL21(DE3) E. coli cells.
Protein expression was induced from the DCLK1 plasmid with 0.6 mM IPTG and expression was allowed to continue for about 10 hours at a temperature of 18° C. Cells was harvested by centrifugation and resuspended in Lysis buffer with protease inhibitors (1 mM Benzamidine and 1 mM PMSF). Lysis was performed by passing 3 times through a homogenizer. Lysate was centrifuged at 20K for 1 hour at a temperature of 4° C. and the supernatant was filtered through a 0.2 micron membrane. Protein was loaded on nickel (Ni)-NTA resin, washed with Wash buffers, and eluted with 300 mM imidazole buffer. […]
DCLK1 kinase activity was measured in vitro using an electrophoretic mobility shift assay. […] Substrate and product peptides present in each sample were electrophoretically separated and detected using 12-channel LabChip3000 microfluidic capillary electrophoresis instrument (Caliper Life Sciences, Waltham Mass., USA). The change in the relative fluorescence intensities of substrate and product peaks (reflecting enzyme activity) was measured. Capillary electrophoregrams were analyzed using HTS Well Analyzer software (Caliper Life Sciences, Waltham Mass., USA).

## COc1cc(N2CCN(C)CC2)ccc1Nc1ncc2c(n1)N(C)c1ccccc1C(=O)N2CC(F)(F)F [Compound 2, 2-((2-methoxy-4-(4-methylpiperazin-1-yl)phenyl)amino)-11-methyl-5-(2,2,2-trifluoroethyl)-5,11-dihydro-6H-benzo[e]pyrimido[5,4-b][1,4]diazepin-6-one]
  IC50 against DCLK1 compared with the positive control (FIG. 2): substantially decreased from the IC50 value of the positive control

## COc1cc(C(=O)NC2CCN(C)CC2)ccc1Nc1ncc2c(n1)N(C)c1ccccc1C(=O)N2CC(F)(F)F [Compound 8, 3-methoxy-4-((11-methyl-6-oxo-5-(2,2,2-trifluoroethyl)-6,11-dihydro-5H-benzo[e]pyrimido[5,4-b][1,4]diazepin-2-yl)amino)-N-(1-methylpiperidin-4-yl)benzamide]
  IC50 against DCLK1 compared with the positive control (FIG. 2): substantially decreased from the IC50 value of the positive control
